The values below are quoted from earlier work in patent US8222453B2, “Benzamide factor VIIa inhibitors useful as anticoagulants” (Bristol-Myers Squibb Company, priority 2006, dated 2012).

Series [1] relates to systemic thrombin generation. The following applies: patients undergoing coronary angioplasty.
The next series has as its system deep vein thrombosis. The following applies: patients undergoing total knee replacement.

For “recombinant nematode anticoagulant protein c2 [rNAPc2]”, in series [1], the systemic thrombin generation entry was “reduces systemic thrombin generation”. In addition, the deep vein thrombosis entry with deep vein thrombosis is on record as “prevents deep vein thrombosis”.
